In data set [1] the target is T1, STAT5a (Homo sapiens, UniProt P42229).
T1 sequence (P42229 1-794): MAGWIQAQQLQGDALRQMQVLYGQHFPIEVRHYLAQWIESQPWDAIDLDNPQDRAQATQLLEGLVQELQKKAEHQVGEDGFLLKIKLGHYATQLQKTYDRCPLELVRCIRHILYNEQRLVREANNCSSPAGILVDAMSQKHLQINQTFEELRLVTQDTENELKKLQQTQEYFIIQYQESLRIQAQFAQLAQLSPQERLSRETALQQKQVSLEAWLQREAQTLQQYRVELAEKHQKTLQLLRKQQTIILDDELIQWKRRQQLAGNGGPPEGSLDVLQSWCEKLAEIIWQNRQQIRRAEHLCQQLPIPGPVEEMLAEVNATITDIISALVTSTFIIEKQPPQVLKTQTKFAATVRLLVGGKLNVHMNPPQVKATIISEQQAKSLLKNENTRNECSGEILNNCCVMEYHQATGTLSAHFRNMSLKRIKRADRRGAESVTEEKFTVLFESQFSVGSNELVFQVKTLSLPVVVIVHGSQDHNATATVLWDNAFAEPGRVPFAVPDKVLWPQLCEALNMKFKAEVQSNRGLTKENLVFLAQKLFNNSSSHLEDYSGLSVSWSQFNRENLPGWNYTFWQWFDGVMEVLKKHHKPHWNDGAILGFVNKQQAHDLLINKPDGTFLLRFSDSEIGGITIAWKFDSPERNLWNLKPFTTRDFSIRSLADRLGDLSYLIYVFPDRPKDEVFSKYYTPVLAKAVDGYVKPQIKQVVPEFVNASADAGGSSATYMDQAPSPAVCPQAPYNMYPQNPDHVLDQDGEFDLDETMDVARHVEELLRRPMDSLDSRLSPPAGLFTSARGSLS
Kind of data set: Competitive fluorescence polarization (FP) binding assay, STAT5a SH2 domain. Particulars: FP assay; for Ki: Ki calculated from IC50 (n=3) via published equation; for Ki / IC50: 2 % DMSO (10 % DMSO for 10); for IC50: n=3 unless stated; for inhibition at 100 µM: the highest concentration tested, read-out: maximum inhibition at 100 µM (STAT5a). The protocol: (§1) Fluorescence polarization assays: Competitive binding assays based on fluorescence polarization were carried out essentially as previously described.[[4a]] Unless stated otherwise, final concentrations of the buffer components were: 10 mM Tris (pH 8.0), 50 mM NaCl, 1 mM EDTA, 1 mM DTT, 0.1 % (v/v) Nonidet P‐40 substitute, and 2 % DMSO. Proteins were used at concentrations which reflect the Kd values of the interactions between the fluoropeptide and the protein preparations. Protein concentrations used for activity analysis of compound 5 were 91 nM for STAT1, 107 nM for STAT3, 28 nM for STAT4, 122 nM for STAT5a, 56 nM for STAT5b and 101 nM for STAT6. Protein concentrations used for activity analysis of AC‐4‐130 were 103 nM for STAT5a and 62 nM for STAT5b. […] Final concentration of all fluorescent‐labelled peptides was 10 nM. The following peptides were used in assays: 5‐carboxyfluorescein‐GpYDKPHVL for STAT1; 5‐carboxyfluorescein‐GpYLPQTV‐NH2 for STAT3; 5‐carboxyfluorescein‐GpYLPQNID for STAT4; 5‐carboxyfluorescein‐GpYLVLDKW for STAT5a/5b, and 5‐carboxyfluorescein‐GpYVPWQDLI for STAT6. Protein and test compounds were incubated for 1 h prior to addition of the fluorescein‐labeled peptide. Fluorescence polarization was measured after another 60 min using an Infinite F500 plate reader (Tecan). IC50 values were converted to Ki‐values using the published equation.[13]

The target of data set [2] is T2, STAT5b (Homo sapiens, UniProt P51692).
T2 sequence (P51692 1-787): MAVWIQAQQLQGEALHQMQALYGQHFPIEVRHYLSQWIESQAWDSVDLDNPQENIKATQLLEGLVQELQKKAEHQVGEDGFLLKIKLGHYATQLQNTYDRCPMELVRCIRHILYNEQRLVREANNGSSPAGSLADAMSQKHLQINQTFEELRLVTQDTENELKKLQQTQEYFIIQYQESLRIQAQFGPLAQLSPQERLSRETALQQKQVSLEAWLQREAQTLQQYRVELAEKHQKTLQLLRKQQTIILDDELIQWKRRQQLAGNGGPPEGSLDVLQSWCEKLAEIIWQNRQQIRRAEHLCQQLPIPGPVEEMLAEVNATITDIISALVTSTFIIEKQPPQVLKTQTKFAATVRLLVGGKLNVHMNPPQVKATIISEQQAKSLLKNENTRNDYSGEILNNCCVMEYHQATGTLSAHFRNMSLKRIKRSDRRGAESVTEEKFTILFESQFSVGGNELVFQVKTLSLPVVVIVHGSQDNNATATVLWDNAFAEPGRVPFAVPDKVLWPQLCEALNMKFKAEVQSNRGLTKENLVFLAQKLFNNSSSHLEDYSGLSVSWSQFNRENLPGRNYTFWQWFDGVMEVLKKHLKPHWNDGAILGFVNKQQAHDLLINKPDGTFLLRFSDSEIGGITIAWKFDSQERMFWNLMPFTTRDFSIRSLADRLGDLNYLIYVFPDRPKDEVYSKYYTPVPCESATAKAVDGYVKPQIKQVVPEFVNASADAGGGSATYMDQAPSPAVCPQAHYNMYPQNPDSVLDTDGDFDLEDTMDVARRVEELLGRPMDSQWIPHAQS
Nature of the data set: Competitive fluorescence polarization (FP) binding assay, STAT5b SH2 domain. Particulars: FP assay; for Ki: Ki calculated from IC50 (n=3) via published equation; for Ki / IC50: 2 % DMSO (10 % DMSO for 10); for IC50: n=3. The protocol:
as §1

Data set [3] is described as follows: Solubility as observed during synthesis / stock preparation. Particulars: remark on synthesis. The format is physicochemical.

Consider `O=P(O)(O)Oc1cccc(OP(=O)(O)O)c1` [compound 1, 1,3-Phenylene bis(dihydrogen phosphate)], for which, in data set [1], the Ki (commonly a measure of affinity in units of concentration, obtained from inhibition or displacement) is 23.3 ± 4.9 µM and the IC50 – broadly, the point on the concentration scale where inhibition reaches its midpoint – is 47.2 ± 9.9 µM. Further, in data set [2], the Ki is 20.4 ± 0.7 µM and the IC50 was 41.6 ± 1.4 µM.

Consider `CC(=O)NCc1ccc(OP(=O)(O)O)cc1OP(=O)(O)O` [compound 2], for which the inhibition (commonly the share of the control response that was lost under treatment) at 100 µM in data set [1] was found to be 50 ± 3%. For the same compound, in data set [2], the Ki is 42.1 ± 1.6 µM and the IC50 came out at 85.7 ± 3.2 µM.

Turning to `CC(=O)NCc1cc(OP(=O)(O)O)cc(OP(=O)(O)O)c1` [compound 3], in data set [1], the Ki was 36.4 ± 3.8 µM and the IC50 worked out at 73.8 ± 7.7 µM. Besides, in data set [2], the Ki is 18.7 ± 0.8 µM and the IC50 came out at 38.1 ± 1.6 µM.

As for `O=C(COc1ccc(C(=O)Nc2ccc(Oc3ccccc3)cc2)cc1)NCc1cc(OP(=O)(O)O)cc(OP(=O)(O)O)c1` [compound 4], in data set [1], the Ki was 2.5 ± 0.5 µM and the IC50 was determined as 5.2 ± 1 µM. Besides, the “increase of activity against STAT5a relative to resorcinol bisphosphate (1)” value in data set [1] (ratio of Ki values) is recorded as 9 fold. In data set [2], the Ki is 0.9 ± 0.1 µM and the IC50 was 1.9 ± 0.3 µM. For the same compound, the “increase of activity against STAT5b relative to resorcinol bisphosphate (1)” value in data set [2] (ratio of Ki values) is 23 fold. For the same compound, in data set [3], the “solubility of the final product” value is recorded as “limited solubility”.

On to `O=P(O)(O)Oc1ccc(F)c(OP(=O)(O)O)c1` [compound 6], for which, in data set [1], the Ki is 29.4 ± 0.6 µM and the IC50 was determined as 59.4 ± 1.2 µM. In data set [2], the Ki was 27.4 ± 2.8 µM and the IC50 came out at 55.8 ± 5.6 µM.

Regarding `O=P(O)(O)Oc1cccc(OP(=O)(O)O)c1F` [compound 7], the values for the Ki in data set [1] and in data set [2] were 10.8 ± 0.5 µM and 7.6 ± 0.4 µM, respectively. For the same compound, the IC50 in data set [1] turned out to be 21.8 ± 0.9 µM; in data set [2] it was 15.5 ± 0.8 µM.

For `O=P(O)(O)Cc1cccc(CP(=O)(O)O)c1F` [compound 8], the inhibition at 100 µM in data set [1] amounted to 12 ± 3%; in data set [2] (100 µM, read-out: maximum inhibition at 100 µM (STAT5b)), 14 ± 1%.

On to `O=P(O)(O)C(F)(F)c1cccc(C(F)(F)P(=O)(O)O)c1F` [compound 9], for which the values for the inhibition constant Ki in data set [1] and in data set [2] were 15 ± 0.6 µM and 18.9 ± 1.5 µM, respectively. Moreover, the IC50 turned out to be 30.7 ± 1.3 µM in data set [1] and 38.4 ± 3 µM in data set [2].

The values are drawn from publication PMC10099813, “Stafiba: A STAT5‐Selective Small‐Molecule Inhibitor” (Chembiochem, 2022).
